The values that follow come from publication PMC8204636 (ACS chemical biology, 2020).

The assay deals with Cdk2 (Homo sapiens, UniProt P24941). The assay can be described thus: p-Cl-ANS fluorescent binding assay. As to conditions: for cooperativity with the allosteric ANS site: based on p-Cl-ANS fluorescent binding studies; for effect on the binding (fluorescence) of p-Cl-ANS: orthosteric ligand titrated into Cdk2 with p-Cl-ANS.

For `Nc1ncnc2c1ncn2[C@@H]1O[C@H](COP(=O)(O)OP(=O)(O)NP(=O)(O)O)[C@@H](O)[C@H]1O` [AMP-PNP, adenylyl-imidodiphosphate], the “cooperativity with the allosteric ANS site” value is reported as “only weakly cooperative, if at all” and the “effect on the binding (fluorescence) of p-Cl-ANS” value is on record as “little effect”.
As for `Nc1ncnc2c1ncn2[C@@H]1O[C@H](COP(=O)(O)OP(=O)(O)OP(=O)(O)O)[C@@H](O)[C@H]1O` [ATP], the “cooperativity with the allosteric ANS site” value is “only weakly cooperative, if at all” and the “effect on the binding (fluorescence) of p-Cl-ANS” value is reported as “little effect”.
